Measurements as given in patent US9782424B2, “Synergistic combination comprising avermectins and a NSAID for tumor inhibition” (Ectin Research AB, priority 2011, dated 2017).
Where “and” joins values, the source holds several entries; their conditions need not be identical. Equal values may be shown once. Entries after “also recorded” stand apart in the source; their conditions may differ.

Legend:
[1] = tested on: breast cell line (ZR-75-1); test: XTT-assay proliferation rate, breast cell line; format: cell-based, human; conditions: for Proliferation rate in per cent compared to untreated medium control: 2R-75-1 breast Ca; for Proliferation rate compared to untreated control: ZR-75-1 (Table 6)
Procedure: (§1) Commercially available human tumor cell lines were purchased from ATCC (ATCC/LGC-standards, Borás, Sweden). […] Briefly, ampoules of frozen cells were thawed by submerging into a 37° C. water bath for 45 s. […] With supernatant discarded, cell pellets were further resuspended with 5 ml complete medium into 25 cm^2 cell culture flasks (Cell+, Sarstedt, Nümbrecht, Germany). Tumor cells were cultured until sub-confluence and further sub-cultured with Trypsin (0.5%), EDTA (0.2%) solution (T4174, TE-10x, Sigma) in sterile sodium chloride. Culture media was changed two-three times a week. Culture flasks (Cell+, Sarstedt, Nümbrecht, Germany) and culture plates (Falcon/BD, Franklin Lakes, N.J., USA) were used for experimental set-ups. Cells were regularly monitored using an inverted microscope connected to a digital photo equipment (Axiovert 25 and Axiovision, Zeiss, Carl Zeiss AG, Germany) (FIG. 1). Described culture techniques and equipment have been used extensively in the laboratory
(§2) The proliferation rates of the different human tumor cell lines were studied using a method based on the conversion of a sodium salt (XTT-assay, Sigma) into a stable orange color that could be analyzed in a spectrophotometer. […] The color change was measured using a 96-well plate reader with software to calculate the absorbance at 450 nm (V-max/Softmax Pro, Molecular Devices, USA).
(§3) Increasing concentrations of substance ivermectin was added with an 8-channel pipette (Titertek, Kem-En-Tec, Taastrup, Denmark) together with sterile pipette tips (Molecular Bioproducts, San Diego, Calif., USA). Cell cultures including active substances were incubated for 24 hours (and 96 hours). Untreated wells including culture medium only served as untreated controls. The XTT-assay substrate was added and after gentle agitation using a micro plate shaker, absorbencies at 450 and 650 nm were measured. Levels from medium were subtracted and compared with control wells, using culture medium only.

[2] = tested on: urinary bladder cell line (UM-UC-3); test: XTT-assay proliferation rate, urinary bladder cell line; format: cell-based, human; conditions: for Proliferation rate compared to untreated medium control: UM-UC-3 (Table 3); for Proliferation rate in per cent compared to untreated medium control: UM-UC-3
Procedure: as §1, §2, §3

[3] = tested on: human urinary bladder cancer cells; test: Tryphan blue exclusion viability; format: cell-based; conditions: compared to untreated medium control (FIG. 3)
Procedure: The effect of Ivermectin, selamectin, abamectin alone, or in combination with ketoconazole, albendazole, ibuprofen, diclofenac and celecoxib on the morphology of cultured human tumor cells was studied. The effect of ivermectin in the presence of increasing concentration of ivermectin was also investigated. Cells were grown into sub-confluence and then sub-cultured into 12 and 24 well plates (Sarstedt, Falcon/BD) for morphology studies, or in 96 well plates (Sarstedt, Falcon/BD) for proliferation studies. Viability of urinary bladder cells was studied using the tryphan blue exclusion method (Freshney R. Culture of animal cells: A manual of basic techniques. New York: Alan R Liss Inc; 1987).

[4] = tested on: breast cancer cell line 2R-75-1; test: Morphology of cultured tumor cells, ZR-75-1; format: cell-based, human; conditions: ivermectin 10e-4 to 10e-10 mol/L (FIG. 2)
Procedure: Commercially available human tumor cell lines were purchased from ATCC (ATCC/LGC-standards, Borás, Sweden). Cell lines from urinary bladder (UM-UC-3, #CRL-1749), colorectal carcinoma (Colo205, #CCL-222 and HT29, #HTB-38), prostate carcinoma (LNCaP, #CRL-1740) and breast carcinoma (ZR-75-1, #CRL-1500) were purchased and stored in liquid nitrogen. Cells were cultured in Roswell Park Memorial Institute media (RPMI-1640) or minimum essential medium with Earl's salts (EMEM) supplemented with 10% Foetal calf serum (FCS, Sigma) and cultured using a 37° C. cell culture incubator (Forma Scientific, NinoLab, Kungsbacka, Sweden) with 5% CO2 humidified atmosphere. Tumor cell lines were handled aseptically using a laminar airflow (LAF) bench (Holten 2448, Ninolab, Sweden) and stored in a liquid nitrogen tank and were initiated in culture as previously described (Falk P. Experimental models of the peritoneal environment: Effects of TGF-beta and Hyaluronan. Göteborg: University of Gothenburg; 2008). Briefly, ampoules of frozen cells were thawed by submerging into a 37° C. water bath for 45 s. Cells were resuspended in 10 ml of preheated RPMI-1640 with 10% FCS and centrifuged in 260 g for 10 min. […] Cells were regularly monitored using an inverted microscope connected to a digital photo equipment (Axiovert 25 and Axiovision, Zeiss, Carl Zeiss AG, Germany) (FIG. 1). […]

prostate cells (LNCaP) = test: Morphology of cultured tumor cells, LNCaP; format: cell-based, human; conditions: for Effect on morphology: 24 hours (FIG. 8)
Procedure: as §1
The effect of Ivermectin, selamectin, abamectin alone, or in combination with ketoconazole, albendazole, ibuprofen, diclofenac and celecoxib on the morphology of cultured human tumor cells was studied. The effect of ivermectin in the presence of increasing concentration of ivermectin was also investigated. Cells were grown into sub-confluence and then sub-cultured into 12 and 24 well plates (Sarstedt, Falcon/BD) for morphology studies, or in 96 well plates (Sarstedt, Falcon/BD) for proliferation studies.

[5] = tested on: advanced urothelial cancer with extensive metastasis; test: Case observation of a patient given ivermectin; format: in vivo, human; conditions: middle age person, standard treatment dosage for Strongyloidiasis, no other medication
From the text: The present studies are based on an observation describing a middle age person suffering from an advanced urothelial cancer with extensive metastasis. Due to a tropical infection (Strongyloidiasis) this patient received the substance ivermectin as a standard treatment dosage.
The present studies are based on a case report describing a middle age person suffering from an advanced urothelial cancer with extensive metastasis. Due to a tropical infection this patient received the substance ivermectin. […] The reason for this is not known however a direct effect of the substance ivermectin could not be precluded.

22,23-dihydroavermectin B1a+22,23-dihydroavermectin B1b [ivermectin]
Proliferation rate in per cent compared to untreated medium control ([1]; ivermectin 10e-9 mol/L): 114 ± 31% | Proliferation rate in per cent compared to untreated medium control ([1]; ivermectin 10e-8 mol/L): 128 ± 30% | Proliferation rate in per cent compared to untreated medium control ([1]; ivermectin 10e-7 mol/L): 105 ± 35% | Proliferation rate in per cent compared to untreated medium control ([1]; ivermectin 10e-6 mol/L): 95 ± 37% | Proliferation rate in per cent compared to untreated medium control ([1]; ivermectin 10e-5 mol/L): 124 ± 34% | Proliferation rate in per cent compared to untreated medium control ([1]; ivermectin 10e-4 mol/L): 7±2% | Proliferation rate compared to untreated control ([1]; IVM 1 μmol/L alone): 90.0 ± 5.2% | Proliferation rate compared to untreated control ([1]; IVM 10 μmol/L alone): 60.5 ± 10.6% | Proliferation rate compared to untreated control ([1]; IVM 100 μmol/L alone): 14.4 ± 1.7% | Effect on proliferation rate compared to untreated control ([1]; ZR-75-1, ivermectin 100 μM alone or in combination): reduced the proliferation rate | Proliferation rate compared to untreated medium control ([2]; IVM 1 μmol/L alone): 99 ± 1% | Proliferation rate compared to untreated medium control ([2]; IVM 10 μmol/L alone): 105 ± 3% | Proliferation rate compared to untreated medium control ([2]; IVM 100 μmol/L alone): 90±1% | Proliferation rate compared to untreated medium control ([2]; IVM 100 μmol/L alone, listed as IVM): 90 ± 1% | Proliferation rate in per cent compared to untreated medium control ([2]; ivermectin 10e-9 mol/L): 100 ± 3% | Proliferation rate in per cent compared to untreated medium control ([2]; ivermectin 10e-8 mol/L): 96 ± 5% | Proliferation rate in per cent compared to untreated medium control ([2]; ivermectin 10e-7 mol/L): 95 ± 9% | Proliferation rate in per cent compared to untreated medium control ([2]; ivermectin 10e-6 mol/L): 91 ± 3% | Proliferation rate in per cent compared to untreated medium control ([2]; ivermectin 10e-5 mol/L): 34±8% and 34 ± 6% | Proliferation rate in per cent compared to untreated medium control ([2]; ivermectin 10e-4 mol/L): 34±3% | Tryphan blue exclusion (viability) [3]: affected cells in a dose-dependent manner | Morphological effects over the concentration series [4]: affected by the highest concentration 10e-4 mol/L only | Effect on morphology (prostate cells (LNCaP); ivermectin 100 μM): affected | Morphological effects over the concentration series (prostate cells (LNCaP); ivermectin 10e-4 to 10e-10 mol/L (FIG. 2)): affected by the highest concentration 10e-4 mol/L only | Effect on morphology (prostate cells (LNCaP); ivermectin 1 and 10 μM): No effect | Clinical outcome of the urothelial cancer [5]: all the clinical signs of the urothelial cancer disappeared; also recorded: treated both the tropical infection and the urothelial cancer
